PMC7999182, “Interaction of Remdesivir with Clinically Relevant Hepatic Drug Uptake Transporters” (Pharmaceutics, 2021)

Columns and labels:
[1] = target: T1, OATP1B3 (Homo sapiens, UniProt Q9NPD5); assay: Remdesivir uptake into HEK cells stably expressing OATP1B3 vs vector control; format: in vitro ADME; settings: 5 µM remdesivir, 10 min, transporter-expressing vs control HEK cells
T1 construct: expressed in transfected cells
T1 sequence (Q9NPD5 1-702): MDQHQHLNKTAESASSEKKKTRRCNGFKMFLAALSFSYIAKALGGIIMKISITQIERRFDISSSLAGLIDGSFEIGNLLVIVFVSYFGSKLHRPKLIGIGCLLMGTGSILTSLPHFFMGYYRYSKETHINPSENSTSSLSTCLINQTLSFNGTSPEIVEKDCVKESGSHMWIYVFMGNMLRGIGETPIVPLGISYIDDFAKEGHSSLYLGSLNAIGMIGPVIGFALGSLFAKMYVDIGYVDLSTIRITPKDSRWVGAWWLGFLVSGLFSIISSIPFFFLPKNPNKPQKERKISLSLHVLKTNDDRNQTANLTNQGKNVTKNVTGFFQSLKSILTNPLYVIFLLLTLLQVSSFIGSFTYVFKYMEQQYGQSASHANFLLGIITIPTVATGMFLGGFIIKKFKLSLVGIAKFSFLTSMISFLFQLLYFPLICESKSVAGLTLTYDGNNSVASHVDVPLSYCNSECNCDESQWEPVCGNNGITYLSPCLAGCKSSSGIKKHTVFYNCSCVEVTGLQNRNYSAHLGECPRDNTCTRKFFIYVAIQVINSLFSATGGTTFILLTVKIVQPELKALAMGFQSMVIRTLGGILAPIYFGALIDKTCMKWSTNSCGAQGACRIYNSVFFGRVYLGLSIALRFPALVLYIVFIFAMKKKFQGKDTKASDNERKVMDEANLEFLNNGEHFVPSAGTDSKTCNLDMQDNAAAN
From the text: (§1) Generation, cultivation and characterization of human embryonic kidney (HEK) cells stably expressing OATP1B1 refseq (=OATP1B1*1a), OATP1B1*1b, OATP1B1*5 and OATP1B1*15 [18], OATP1B3 [19], OATP2B1 [13] and OCT1 [20] have been described previously. OATP1B1 cells were cultivated in minimal essential medium (Life Technologies, Paisley, UK) and OATP1B3, OATP2B1 and OCT1 cells were cultivated in Dulbecco’s modified Eagle medium (Sigma, Darmstadt, Germany). Cultivation media were supplemented with 10% fetal calf serum, 100 U/mL penicillin and 100 µg/mL streptomycin. Cells were grown at 37 °C and 5% CO2. Functionality of the cells was confirmed by measuring uptake of prototypic substrates (see Section 2.3 and supplementary material).
Uptake assays were conducted at 37 °C according to previously described methods. For this, cells were seeded in 24-well plates (320,000 cells/well) and cultured for 2 days. Cells were then incubated for a further 24 h in culture medium with 5 mM butyrate (OATP1B3, OATP2B1, OCT1) or 10 mM butyrate (OATP1B1) to increase protein levels of recombinant transporters. […]
(§2) Remdesivir was determined by UHPLC-MS-MS analysis on an Agilent 1290 infinity UHPLC system coupled to an Agilent 6495B triple quadrupole mass spectrometer (Agilent, Waldbronn, Germany) similar to a recently published method. […]

[2] = target: T2, OATP1B1*15 (Homo sapiens, UniProt Q9Y6L6, N130D/V174A); assay: Remdesivir uptake into HEK cells stably expressing OATP1B1*15 vs vector control; format: in vitro ADME; settings: 10 min
T2 construct: expressed in transfected cells
T2 sequence (Q9Y6L6 1-691 N130D/V174A): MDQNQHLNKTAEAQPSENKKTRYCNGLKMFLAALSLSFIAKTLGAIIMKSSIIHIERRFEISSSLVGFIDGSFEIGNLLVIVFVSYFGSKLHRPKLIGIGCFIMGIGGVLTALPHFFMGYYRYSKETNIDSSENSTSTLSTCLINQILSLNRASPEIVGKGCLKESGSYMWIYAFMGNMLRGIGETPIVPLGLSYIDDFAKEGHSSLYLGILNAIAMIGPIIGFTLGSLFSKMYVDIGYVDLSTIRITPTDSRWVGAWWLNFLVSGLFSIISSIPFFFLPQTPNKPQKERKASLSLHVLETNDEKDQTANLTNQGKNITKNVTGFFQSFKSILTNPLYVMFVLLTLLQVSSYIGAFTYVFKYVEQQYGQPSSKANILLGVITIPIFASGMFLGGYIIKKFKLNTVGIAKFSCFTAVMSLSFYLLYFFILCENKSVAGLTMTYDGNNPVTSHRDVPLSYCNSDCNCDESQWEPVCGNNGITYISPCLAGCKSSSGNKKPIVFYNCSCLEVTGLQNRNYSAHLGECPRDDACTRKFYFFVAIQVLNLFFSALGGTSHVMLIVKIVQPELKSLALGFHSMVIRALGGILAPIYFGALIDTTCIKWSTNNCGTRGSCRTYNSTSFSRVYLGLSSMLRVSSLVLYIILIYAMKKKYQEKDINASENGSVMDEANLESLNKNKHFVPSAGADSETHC
From the text: as §1
Uptake assays were conducted at 37 °C according to previously described methods. For this, cells were seeded in 24-well plates (320,000 cells/well) and cultured for 2 days. Cells were then incubated for a further 24 h in culture medium with 5 mM butyrate (OATP1B3, OATP2B1, OCT1) or 10 mM butyrate (OATP1B1) to increase protein levels of recombinant transporters. Before the uptake experiments, cells were washed with the respective pre-warmed (37 °C) uptake buffer. The compositions of the uptake buffers were as follows: for OATP1B1, OATP1B3, OATP2B1: 142 mM NaCl, 12.5 mM hydroxyethylpiperazine ethanesulfonic acid, 5 mM KCl, 1 mM KH2PO4, 1.5 mM CaCl2, 1.2 mM MgSO4, 5 mM glucose, pH 7.3; for OCT1: 145 mM NaCl, 5 mM hydroxyethylpiperazine ethanesulfonic acid, 3 mM KCl, 1 mM CaCl2, 0.5 mM MgCl2, 5 mM glucose, pH 7.4. Uptake was initiated by replacing this solution with uptake buffer containing different concentrations of remdesivir as indicated. […]
as §2

CCC(CC)COC(=O)[C@H](C)N[P@](=O)(OC[C@H]1O[C@@](C#N)(c2ccc3c(N)ncnn23)[C@H](O)[C@@H]1O)Oc1ccccc1 [Remdesivir]
Remdesivir uptake ratio [1]: 1.5
Uptake vs vector-transfected control cells ([2]; 0.5 µM remdesivir): significantly lower uptake
Accumulation vs vector-transfected control cells ([2]; 5 µM remdesivir): moderately higher
Accumulation vs vector-transfected control cells ([2]; 10 and 50 µM remdesivir): moderately higher
